{"source": "patent US4097487A", "about": "“Pyrrolidinyl and piperidinyl benzamide derivatives” (Yamanouchi Pharmaceutical Co., Ltd., priority 1975, dated 1978)", "key": {"[1]": {"tested_on": "methamphetamin-induced stereotyped behavior", "test": "Activity of reducing the methamphetamin-induced stereotyped behavior (Experiment II b)", "type": "in vivo, rat (male, Wister)", "settings": "sc, read-out: ED50, activity of reducing the methamphetamin-induced stereotyped behavior", "method": "(b). Activity of reducing the methamphetamin-induced stereotyped behavior:\nA test sample was administered subcutaneously to the rats, after 30 minutes, 5 mg./kg. of methamphetamine was administered intraperitoneally, and then after 60 minutes and 90 minutes since then, the symptom of the methamphetamin-induced stereotyped behavior was observed. From the relation of the ratio of inhibition and the amount of the test sample used, ED50 was determined."}, "[2]": {"tested_on": "apomorphine-induced stereotyped behavior", "test": "Activity of reducing the apomorphine-induced stereotyped behavior (Experiment I)", "type": "in vivo, rat (male, Wistar)", "settings": "sc, read-out: ED50, activity of reducing apomorphine-induced stereotyped behavior"}, "[3]": {"tested_on": "conditioned avoidance response", "test": "Activity of reducing the conditioned avoidance response, shuttle box (Experiment II a)", "type": "in vivo, rat (male, Wister)", "settings": "sc, read-out: ED50, activity of reducing the conditioned avoidance response", "method": "(a) Activity of reducing the conditioned avoidance response:\nBy a shuttle box method using rats (male, Wister, about 300 g.), a test sample was administered subcutaneously to the rats, after 30 minutes, a conditioned stimulation (buzzer noise for at longest 5 seconds) was applied, and then the avoidance response was observed. Then, from the relation of the ratio of inhibition of avoidance response and the amount of the test sample used, ED50 was determined. In addition, the training of applying an electric stimulation (A.C. 40 volts) as an unconditioned stimulation from a grid on a floor for at longest 5 seconds was applied to rats at 20 times/day for 6 days and the rats showing the ratio of avoidance response of higher than 80% were used in the experiment."}, "[4]": {"test": "Acute toxicity, up-down method (Experiment III b)", "settings": "in vivo, iv, mouse", "method": "A test sample was administered to mice (male, ICR, 8 week age) by an intravenous injection and then LD50 was determined by an up-down method."}, "[5]": {"test": "Cataleptogenic activity (Experiment III a)", "design": "species or system mouse (male, ICR)", "settings": "in vivo, sc; mouse, 30 min, fore-limbs hung on horizontal rod for 30 second", "method": "(a) Cataleptogenic activity:\nBy referring to the method by Curvoisier et al (Psychotropic drugs, 373(1957)), a test sample was subcutaneously administered to mice (male, ICR, 8 weeks age) and after 30 minutes since then, the both fore-limb was forcibly hung on a horizontal metallic rod of 2 mm. diameter placed at a height of 6 cm. and when the mouse was kept in that state for 30 second, the activity of the mouse was considered to be a positive cataleptogenic activity. From the relation of the ratio of inhibition and the amount of the test sample used, ED50 was determined."}, "[6]": {"settings": "according to the Dutch patent; cited from earlier work"}, "[7]": {"settings": "rat, s.c., 30 min before 5 mg./kg. methamphetamine i.p., observed after 60 and 90 min"}, "[8]": {"settings": "rat, s.c., 30 min before 1.25 mg/Kg apomorphine i.v., observed after 5, 10, 20 min"}, "[9]": {"settings": "rat, s.c., 30 min before conditioned stimulation, shuttle box"}}, "note": "Where a name gives a salt, the structure may show the parent alone. Read-outs that look alike come from different tables or passages of the source.", "data": [{"compound": "CCN(CCNC(=O)c1cc(Cl)c(N)cc1OC)Cc1cccc(Cl)c1", "note": "[N-[2-(N'-m-chlorophenylmethyl-N'-ethylamino)ethyl]-4-amino-5-chloro-2-methoxybenzamide]", "values": [{"measurement": "ED50", "setting": "[1]; [7]", "value": 1, "unit": "mg/kg"}, {"measurement": "ED50", "setting": "[2]; [8]", "value": 0.3, "unit": "mg/kg"}]}, {"compound": "COc1cc(N)c(Cl)cc1C(=O)NC1CCN(Cc2ccccc2)C1", "note": "(stereo not drawn) [N-(1-benzyl-3-pyrrolidinyl)-4-amino-5-chloro-2-methoxybenzamide]", "values": [{"measurement": "ED50", "setting": "[1]; [7]", "value": 0.72, "unit": "mg/kg"}, {"measurement": "ED50", "setting": "[2]; [8]", "value": 0.22, "unit": "mg/kg"}, {"measurement": "ED50", "setting": "[3]; [9]", "value": 0.3, "unit": "mg/kg"}]}, {"compound": "CCN(CCNC(=O)c1cc(Cl)c(N)cc1OC)Cc1ccc(F)cc1", "note": "[N-[2-(N'-ethyl-N'-p-fluorophenylmethylamino)ethyl]-4-amino-5-chloro-2-methoxybenzamide]", "values": [{"measurement": "ED50", "setting": "[2]; [8]", "value": 0.18, "unit": "mg/kg"}]}, {"compound": "CCN1CCCC1CNC(=O)c1cc(S(=O)(=O)CC)ccc1OC", "note": "(stereo not drawn) [Sultopiride, reference compound]", "values": [{"measurement": "ED50", "setting": "[2]; [8]", "value": 18, "unit": "mg/kg"}]}, {"compound": "COc1cc(C(=O)NCCN(C)Cc2ccccc2)cc(OC)c1OC", "note": "[N-[2-(N'-benzyl-N'-methylamino)ethyl]-3,4,5-trimethoxybenzamide, reference compound]", "values": [{"measurement": "ED50", "setting": "[2]; [8]", "value": "> 30", "unit": "mg/kg"}]}, {"compound": "CCS(=O)(=O)c1ccc(OC)c(C(=O)NCC2CCC(C)N2Cc2ccccc2)c1.Cl", "note": "(stereo not drawn) [N-(1-benzyl-5-methyl-2-pyrrolidinylmethyl)-5-ethylsulfonyl-2-methoxybenzamide hydrochloride]", "values": [{"measurement": "ED50", "setting": "[1]; [7]", "value": 1.8, "unit": "mg/kg"}, {"measurement": "ED50", "setting": "[2]; [8]", "value": 0.3, "unit": "mg/kg"}, {"measurement": "ED50", "setting": "[3]; [9]", "value": 0.3, "unit": "mg/kg"}]}, {"compound": "COc1cc(N)c(Cl)cc1C(=O)NCCN(C)Cc1ccccc1", "note": "[N-[2-(N'-benzyl-N'-methylamino)ethyl]-4-amino-5-chloro-2-methoxybenzamide]", "values": [{"measurement": "LD50", "setting": "[4]", "value": 48, "unit": "mg/kg"}, {"measurement": "ED50", "setting": "[1]; [7]", "value": 3, "unit": "mg/kg"}, {"measurement": "ED50", "setting": "[2]; [8]", "value": 0.54, "unit": "mg/kg"}, {"measurement": "ED50", "setting": "[3]; [9]", "value": 0.2, "unit": "mg/kg"}, {"measurement": "ED50 at 0.5 h", "setting": "[5]", "value": 60, "unit": "mg/kg"}]}, {"compound": "CCN(CCNC(=O)c1cc(Cl)c(N)cc1OC)Cc1ccc(Cl)cc1", "note": "[N-[2-(N'-p-chlorophenylmethyl-N'-ethylamino)ethyl]-4-amino-5-chloro-2-methoxybenzamide]", "values": [{"measurement": "ED50", "setting": "[1]; [7]", "value": 1, "unit": "mg/kg"}, {"measurement": "ED50", "setting": "[2]; [8]", "value": 0.18, "unit": "mg/kg"}, {"measurement": "ED50", "setting": "[3]; [9]", "value": 0.1, "unit": "mg/kg"}]}, {"compound": "CCN(CC)CCNC(=O)c1cc(Cl)c(N)cc1OC", "note": "[Metoclopramide, reference compound]", "values": [{"measurement": "ED50", "setting": "[2]; [8]", "value": 4.1, "unit": "mg/kg"}]}, {"compound": "COc1cc(N)c(Cl)cc1C(=O)NC1CCN(Cc2ccc(Cl)cc2)C1", "note": "(stereo not drawn) [N-(1-p-chlorophenylmethyl-3-pyrrolidinyl)-4-amino-5-chloro-2-methoxybenzamide]", "values": [{"measurement": "ED50", "setting": "[2]; [8]", "value": 0.18, "unit": "mg/kg"}, {"measurement": "ED50", "setting": "[3]; [9]", "value": 0.1, "unit": "mg/kg"}]}, {"compound": "COc1cc(C(=O)NC2CCN(Cc3ccccc3)C2)cc(OC)c1OC", "note": "(stereo not drawn) [N-(1-benzyl-3-pyrrolidinyl)-3,4,5-trimethoxybenzamide, reference compound]", "values": [{"measurement": "ED50", "setting": "[2]; [8]", "value": "> 10", "unit": "mg/kg"}]}, {"compound": "CCN(CCNC(=O)c1cc(Cl)c(N)cc1OC)Cc1ccc(OC)cc1", "note": "[N-[2-(N'-p-methoxyphenylmethyl-N'-ethylamino)ethyl]-4-amino-5-chloro-2-methoxybenzamide]", "values": [{"measurement": "ED50", "setting": "[2]; [8]", "value": 0.3, "unit": "mg/kg"}]}, {"compound": "CCN(CCNC(=O)c1cc(S(=O)(=O)CC)ccc1OC)Cc1ccc(Cl)cc1", "note": "[N-[2-(N'-p-chlorophenylmethyl-N'-ethylamino)ethyl]-3-ethylsulfonyl-6-methoxybenzamide hydrochloride]", "values": [{"measurement": "ED50", "setting": "[1]; [7]", "value": 3, "unit": "mg/kg"}, {"measurement": "ED50", "setting": "[2]; [8]", "value": 0.47, "unit": "mg/kg"}]}, {"compound": "CCN1CCCC1CNC(=O)c1cc(S(N)(=O)=O)ccc1OC", "note": "(stereo not drawn) [Sulpiride, reference compound]", "values": [{"measurement": "ED50", "setting": "[2]; [8]", "value": "> 100", "unit": "mg/kg"}]}, {"compound": "COc1cc(N)c(Cl)cc1C(=O)NCC1CCC(C)N1Cc1ccccc1", "note": "(stereo not drawn) [N-(1-benzyl-5-methyl-2-pyrrolidinylmethyl)-4-amino-5-chloro-2-methoxybenzamide]", "values": [{"measurement": "LD50", "setting": "[4]", "value": 49, "unit": "mg/kg"}, {"measurement": "ED50", "setting": "[1]; [7]", "value": 1, "unit": "mg/kg"}, {"measurement": "ED50", "setting": "[2]; [8]", "value": 0.18, "unit": "mg/kg"}, {"measurement": "ED50", "setting": "[3]; [9]", "value": 0.18, "unit": "mg/kg"}, {"measurement": "ED50 at 0.5 h", "setting": "[5]", "value": 30, "unit": "mg/kg"}]}, {"compound": "COc1cc(N)c(Cl)cc1C(=O)NC1CCN(C2CCCCC2)C1", "note": "(stereo not drawn) [N-(1-cyclohexyl-3-pyrrolidinyl)-4-amino-5-chloro-2-methoxybenzamide, reference compound]", "values": [{"measurement": "antiemetic activity (in words)", "setting": "[6]", "value": "strongest antiemetic activity"}, {"measurement": "ED50", "setting": "[2]; [8]", "value": 1.8, "unit": "mg/kg"}]}, {"compound": "CCN(CCNC(=O)c1cc(Cl)c(N)cc1OC)Cc1ccccc1", "note": "[N-[2-(N'-benzyl-N'-ethylamino)ethyl]-4-amino-5-chloro-2-methoxybenzamide]", "values": [{"measurement": "ED50", "setting": "[1]; [7]", "value": 1.8, "unit": "mg/kg"}, {"measurement": "ED50", "setting": "[2]; [8]", "value": 0.2, "unit": "mg/kg"}, {"measurement": "ED50", "setting": "[3]; [9]", "value": 0.1, "unit": "mg/kg"}]}, {"compound": "CN(C)CCCN1c2ccccc2Sc2ccc(Cl)cc21", "note": "[Chlorpromazine, reference compound]", "values": [{"measurement": "LD50", "setting": "[4]", "value": 59, "unit": "mg/kg"}, {"measurement": "ED50", "setting": "[1]; Rattus norvegicus", "value": 3, "unit": "mg/kg"}, {"measurement": "ED50", "setting": "[2]; Rattus norvegicus", "value": 2.5, "unit": "mg/kg"}, {"measurement": "ED50", "setting": "[3]; Rattus norvegicus", "value": 0.8, "unit": "mg/kg"}, {"measurement": "ED50 at 0.5 h", "setting": "[5]", "value": 10, "unit": "mg/kg"}]}]}
